Experimental data reported in PubChem BioAssay AID1963848 (Molecular Pharmacology Branch, DTP, NCI, 2024).

Test system: 379773-124-R-J2-PDC spheroid viability
Assay: Anticancer human tumor 379773-124-R-J2-PDC patient-derived endometrial carcinoma cell line growth inhibition [POLQ]
Details: spheroids with HUVEC and MSC; for IC50: curve of first compound; for viability, T/C: stronger effect = lower value
Method in brief: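 Three-cell-type spheroids modelling solid tumor plus stroma served as the readout system; POL inhibitors were tested individually and in combination, concentration ranges set by clinical Cmax where known.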

[1] = second compound 0.0316 µM, first compound 0.0316 µM
[2] = second compound 0.0316 µM, first compound 0.1 µM
[3] = second compound 0.0316 µM, first compound 0.316 µM
[4] = second compound 0.0316 µM, first compound 1 µM
[5] = second compound 0.0316 µM, first compound 3.16 µM
[6] = second compound 0.0316 µM, first compound 10 µM
[7] = second compound 0.1 µM, first compound 0.0316 µM
[8] = second compound 0.1 µM, first compound 0.1 µM
[9] = second compound 0.1 µM, first compound 0.316 µM
[10] = second compound 0.1 µM, first compound 1 µM
[11] = second compound 0.1 µM, first compound 3.16 µM
[12] = second compound 0.1 µM, first compound 10 µM
[13] = second compound 0.316 µM, first compound 0.0316 µM
[14] = second compound 0.316 µM, first compound 0.1 µM
[15] = second compound 0.316 µM, first compound 0.316 µM
[16] = second compound 0.316 µM, first compound 1 µM
[17] = second compound 0.316 µM, first compound 3.16 µM
[18] = second compound 0.316 µM, first compound 10 µM
[19] = second compound 1 µM, first compound 0.0316 µM
[20] = second compound 1 µM, first compound 0.1 µM
[21] = second compound 1 µM, first compound 0.316 µM
[22] = second compound 1 µM, first compound 1 µM
[23] = second compound 1 µM, first compound 3.16 µM
[24] = second compound 1 µM, first compound 10 µM
[25] = second compound 3.16 µM, first compound 0.0316 µM
[26] = second compound 3.16 µM, first compound 0.1 µM
[27] = second compound 3.16 µM, first compound 0.316 µM
[28] = second compound 3.16 µM, first compound 1 µM
[29] = second compound 3.16 µM, first compound 3.16 µM
[30] = second compound 3.16 µM, first compound 10 µM
[31] = second compound 10 µM, first compound 0.0316 µM
[32] = second compound 10 µM, first compound 0.1 µM
[33] = second compound 10 µM, first compound 0.316 µM
[34] = second compound 10 µM, first compound 1 µM
[35] = second compound 10 µM, first compound 3.16 µM
[36] = second compound 10 µM, first compound 10 µM
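Further: spheroids exposed to drugs for seven days before readout.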
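Wherever viability, T/C is given: percent viability relative to DMSO vehicle control taken as 100%.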

## C#Cc1c(F)ccc2cc(O)cc(-c3ncc4c(N5CC6CCC(C5)N6)nc(OCC56CCCN5CC(F)C6)nc4c3F)c12 (stereo not drawn) + Nc1ccc(C#CCN(C(=O)Cc2ncc(C(F)(F)F)cc2C(F)(F)F)c2ccc(F)cc2)nn1
Second compound 0.0316 µM
  IC50: > 10 µM
Second compound 0.1 µM
  IC50: > 10 µM
Second compound 0.316 µM
  IC50: > 10 µM
Second compound 1 µM
  IC50: > 10 µM
Second compound 3.16 µM
  IC50: > 10 µM
Second compound 10 µM
  IC50: > 10 µM
[1]
  viability, T/C: 92.3%
[2]
  viability, T/C: 91.9%
[3]
  viability, T/C: 95.5%
[4]
  viability, T/C: 89.1%
[5]
  viability, T/C: 95.8%
[6]
  viability, T/C: 101%
[7]
  viability, T/C: 92.7%
[8]
  viability, T/C: 110%
[9]
  viability, T/C: 88.6%
[10]
  viability, T/C: 98%
[11]
  viability, T/C: 103%
[12]
  viability, T/C: 107%
[13]
  viability, T/C: 91.3%
[14]
  viability, T/C: 89.3%
[15]
  viability, T/C: 92.1%
[16]
  viability, T/C: 94.3%
[17]
  viability, T/C: 104%
[18]
  viability, T/C: 111%
[19]
  viability, T/C: 84.5%
[20]
  viability, T/C: 97.6%
[21]
  viability, T/C: 99.9%
[22]
  viability, T/C: 86.1%
[23]
  viability, T/C: 106%
[24]
  viability, T/C: 103%
[25]
  viability, T/C: 99.3%
[26]
  viability, T/C: 88.7%
[27]
  viability, T/C: 105%
[28]
  viability, T/C: 103%
[29]
  viability, T/C: 103%
[30]
  viability, T/C: 104%
[31]
  viability, T/C: 88.9%
[32]
  viability, T/C: 88.6%
[33]
  viability, T/C: 98.5%
[34]
  viability, T/C: 85.6%
[35]
  viability, T/C: 91.3%
[36]
  viability, T/C: 102%

## CCc1cc2c(N3CCc4c(cc(Cn5ccnc5)cc4-c4cn(C)nc4C(F)(F)F)C3=O)cc(C)nc2c(OC)n1 + Nc1ccc(C#CCN(C(=O)Cc2ncc(C(F)(F)F)cc2C(F)(F)F)c2ccc(F)cc2)nn1
Second compound 0.0316 µM
  IC50: > 10 µM
Second compound 0.1 µM
  IC50: 6.39 µM
Second compound 0.316 µM
  IC50: 4.84 µM
Second compound 1 µM
  IC50: 9.88 µM
Second compound 3.16 µM
  IC50: > 10 µM
Second compound 10 µM
  IC50: > 10 µM
[1]
  viability, T/C: 75.7%
[2]
  viability, T/C: 78.4%
[3]
  viability, T/C: 61.9%
[4]
  viability, T/C: 60.9%
[5]
  viability, T/C: 64.3%
[6]
  viability, T/C: 48.9%
[7]
  viability, T/C: 66.9%
[8]
  viability, T/C: 81.1%
[9]
  viability, T/C: 65.3%
[10]
  viability, T/C: 62.2%
[11]
  viability, T/C: 55.7%
[12]
  viability, T/C: 46.4%
[13]
  viability, T/C: 74.3%
[14]
  viability, T/C: 73%
[15]
  viability, T/C: 66.6%
[16]
  viability, T/C: 62.3%
[17]
  viability, T/C: 52.1%
[18]
  viability, T/C: 44.7%
[19]
  viability, T/C: 77.5%
[20]
  viability, T/C: 68.8%
[21]
  viability, T/C: 66.2%
[22]
  viability, T/C: 61.6%
[23]
  viability, T/C: 52.4%
[24]
  viability, T/C: 50.6%
[25]
  viability, T/C: 82.2%
[26]
  viability, T/C: 67.6%
[27]
  viability, T/C: 67.2%
[28]
  viability, T/C: 64.7%
[29]
  viability, T/C: 57.9%
[30]
  viability, T/C: 51.8%
[31]
  viability, T/C: 74.5%
[32]
  viability, T/C: 68.2%
[33]
  viability, T/C: 70.7%
[34]
  viability, T/C: 56%
[35]
  viability, T/C: 56.4%
[36]
  viability, T/C: 51.8%

## COc1cc2cc(C(=O)CCC(=O)O)sc2cc1OC + Nc1ccc(C#CCN(C(=O)Cc2ncc(C(F)(F)F)cc2C(F)(F)F)c2ccc(F)cc2)nn1
Second compound 0.0316 µM
  IC50: > 10 µM
Second compound 0.1 µM
  IC50: > 10 µM
Second compound 0.316 µM
  IC50: > 10 µM
Second compound 1 µM
  IC50: > 10 µM
Second compound 3.16 µM
  IC50: > 10 µM
Second compound 10 µM
  IC50: > 10 µM
[1]
  viability, T/C: 84.3%
[2]
  viability, T/C: 97.2%
[3]
  viability, T/C: 87.6%
[4]
  viability, T/C: 93.6%
[5]
  viability, T/C: 93.9%
[6]
  viability, T/C: 82.7%
[7]
  viability, T/C: 93.9%
[8]
  viability, T/C: 86%
[9]
  viability, T/C: 91.8%
[10]
  viability, T/C: 85.5%
[11]
  viability, T/C: 104%
[12]
  viability, T/C: 92.7%
[13]
  viability, T/C: 101%
[14]
  viability, T/C: 82.6%
[15]
  viability, T/C: 93.7%
[16]
  viability, T/C: 93.3%
[17]
  viability, T/C: 85.6%
[18]
  viability, T/C: 96%
[19]
  viability, T/C: 94.8%
[20]
  viability, T/C: 84%
[21]
  viability, T/C: 96.3%
[22]
  viability, T/C: 87.8%
[23]
  viability, T/C: 96.4%
[24]
  viability, T/C: 85.3%
[25]
  viability, T/C: 98.9%
[26]
  viability, T/C: 83.4%
[27]
  viability, T/C: 82.4%
[28]
  viability, T/C: 105%
[29]
  viability, T/C: 90.1%
[30]
  viability, T/C: 104%
[31]
  viability, T/C: 96.2%
[32]
  viability, T/C: 89.6%
[33]
  viability, T/C: 86.4%
[34]
  viability, T/C: 89.3%
[35]
  viability, T/C: 84.9%
[36]
  viability, T/C: 93.5%

## O=C(Nc1ccc(O)c(NS(=O)(=O)c2ccc(F)cc2)c1)c1ccc(-c2ccccc2)cc1 + Nc1ccc(C#CCN(C(=O)Cc2ncc(C(F)(F)F)cc2C(F)(F)F)c2ccc(F)cc2)nn1
Second compound 0.0316 µM
  IC50: > 10 µM
Second compound 0.1 µM
  IC50: > 10 µM
Second compound 0.316 µM
  IC50: > 10 µM
Second compound 1 µM
  IC50: > 10 µM
Second compound 3.16 µM
  IC50: > 10 µM
Second compound 10 µM
  IC50: > 10 µM
[1]
  viability, T/C: 85%
[2]
  viability, T/C: 92.1%
[3]
  viability, T/C: 85.8%
[4]
  viability, T/C: 91.5%
[5]
  viability, T/C: 89.8%
[6]
  viability, T/C: 77.5%
[7]
  viability, T/C: 89.8%
[8]
  viability, T/C: 81.8%
[9]
  viability, T/C: 90.8%
[10]
  viability, T/C: 82.6%
[11]
  viability, T/C: 89%
[12]
  viability, T/C: 79.3%
[13]
  viability, T/C: 91.9%
[14]
  viability, T/C: 90.4%
[15]
  viability, T/C: 84.1%
[16]
  viability, T/C: 88.7%
[17]
  viability, T/C: 92.2%
[18]
  viability, T/C: 79.6%
[19]
  viability, T/C: 96.6%
[20]
  viability, T/C: 96.4%
[21]
  viability, T/C: 89.1%
[22]
  viability, T/C: 83.2%
[23]
  viability, T/C: 93.8%
[24]
  viability, T/C: 81%
[25]
  viability, T/C: 94.4%
[26]
  viability, T/C: 86.3%
[27]
  viability, T/C: 88.8%
[28]
  viability, T/C: 86.2%
[29]
  viability, T/C: 86.7%
[30]
  viability, T/C: 79.4%
[31]
  viability, T/C: 94.2%
[32]
  viability, T/C: 87.6%
[33]
  viability, T/C: 87%
[34]
  viability, T/C: 85.2%
[35]
  viability, T/C: 86.5%
[36]
  viability, T/C: 71.9%
